Like-named read-outs stand apart in the source and are kept apart here.

Broadly, the IC50 is the concentration that inhibits the measured activity by half.

Data set [1] concerns T. b. rhodesiense STIB 900. Details: method as in doi:10.1007/s00706-007-0634-1. To be noted: cited from earlier work; for S.I. = IC50 (Cyt.)/IC50 (T.b.r.): L-6 cytotoxicity over T.b.r.; for IC50: read-out: T. Brucei Rhodesiense IC50.
Data set [2] relates to L-6 cells. Details: method as in doi:10.1007/s00706-007-0634-1. To be noted: rat skeletal myoblasts; read-out: Cytotox. L-6 Cells IC50; cited from earlier work.
The subject of data set [3] is P. falciparum K1. Details: method as in doi:10.1007/s00706-007-0634-1. To be noted: cited from earlier work; for IC50: K1 strain resistant to chloroquine and pyrimethamine; for S.I. = IC50 (Cyt.)/IC50 (P.f. K1): L-6 cytotoxicity over P.f. K1.
Data set [4] has as its system L-6 cells. Kind of data set: In vitro cytotoxicity with L-6 cells. The format is cell-based, rat. To be noted: rat skeletal myoblasts; average of four determinations; read-out: Cytotox. L-6 Cells IC50. As for the experimental part: (§1) Compounds were tested for their activities against strains of P. falciparum and T. b. rhodesiense via microplate assays. Their cytotoxicity was determined with rat skeletal myoblasts (L-6 cells). Chloroquine and melarsoprol served as standards (Table 1).
(§2) Assays were performed in 96-well microtiter plates, each well containing 0.1 mL of RPMI 1640 medium supplemented with 1% L-glutamine (200 mM) and 10% fetal bovine serum and 4000 L-6 cells (a primary cell line derived from rat skeletal myoblasts, ATCC CRL-1458™). Serial drug dilutions of 11 three-fold dilution steps covering a range from 100 to 0.002 μg/mL were prepared. After 70 h of incubation, the plates were inspected under an inverted microscope to assure the growth of the controls and sterile conditions. Then, 0.01 mL resazurin solution (resazurin, 12.5 mg in 100 ml double-distilled water) was added to each well and the plates incubated for another 2 h. The plates were read with a Spectramax Gemini XS microplate fluorometer (Molecular Devices Cooperation, Sunnyvale, CA, USA) using an excitation wavelength of 536 nm and an emission wavelength of 588 nm. The IC50 values were calculated by linear regression from the sigmoidal dose inhibition curves using SoftmaxPro software (Molecular Devices Cooperation, Sunnyvale, CA, USA). Podophyllotoxin (Sigma P4405) was used as control.

The nature of data set [5]: In vitro cytotoxicity with L-6 cells. The format is cell-based, rat. As for the experimental part: as §1, §2
The subject of data set [6] is P. falciparum K1. Kind of data set: In vitro microplate 3H-hypoxanthine incorporation assay against P. falciparum K1. The note with it: for S.I. = IC50 (Cyt.)/IC50 (P.f. K1): L-6 cytotoxicity over P.f. K1; for IC50: Plasmodium falciparum. The data set is classed as cell-based, Plasmodium falciparum. As for the experimental part:
as §1
(§3) In vitro activity against erythrocytic stages of P. falciparum was determined using a ^3H-hypoxanthine incorporation assay, using the drug-sensitive NF54 strain [21] or the chloroquine- and pyrimethamine-resistant K1 strain [22]. Compounds were dissolved in DMSO at 10 mg/mL and added to parasite cultures incubated in RPMI 1640 medium without hypoxanthine, supplemented with HEPES (5.94 g/L), NaHCO3 (2.1 g/L), neomycin (100 U/mL), Albumax (5 g/L) and washed human red cells A+ at 2.5% hematocrit (0.3% parasitemia). Serial drug dilutions of 11 three-fold dilution steps covering a range from 100 to 0.002 µg/mL were prepared. The 96-well plates were incubated in a humidified atmosphere at 37 °C; 4% CO2, 3% O2, 93% N2. After 48 h, 0.05 mL of ^3H-hypoxanthine (=0.5 µCi) was added to each well of the plate. The plates were incubated for an additional 24 h under the same conditions. The plates were then harvested with a Betaplate cell harvester (Wallac, Zurich, Switzerland). The red blood cells were transferred onto a glass fiber filter and washed with distilled water. The dried filters were inserted into a plastic foil with 10 mL of scintillation fluid and counted in a Betaplate liquid scintillation counter (Wallac, Zurich, Switzerland). IC50 values were calculated from sigmoidal inhibition curves by linear regression using Microsoft Excel. Chloroquine (Sigma C6628) was used as control.

Data set [7] has as its system T. b. rhodesiense STIB 900. Kind of data set: In vitro microplate resazurin assay against T. brucei rhodesiense. The format is cell-based, Trypanosoma brucei rhodesiense. To be noted: for S.I. = IC50 (Cyt.)/IC50 (T.b.r.): L-6 cytotoxicity over T.b.r.; for IC50: Trypanosoma brucei, STIB 900 bloodstream forms, average of four determinations, read-out: T. Brucei Rhodesiense IC50. As for the experimental part:
as §1
Minimum essential medium (50 µL) supplemented with 25 mM HEPES, 1 g/L additional glucose, 1% MEM nonessential amino acids (100×), 0.2 mM 2-mercaptoethanol, 1 mM Na-pyruvate and 15% heat inactivated horse serum was added to each well of a 96-well microtiter plate. Serial drug dilutions of 11 three-fold dilution steps covering a range from 100 to 0.002 μg/mL were prepared. Then, 4 × 10^3 bloodstream forms of T. b. rhodesiense STIB 900 in 50 µL was added to each well and the plate incubated at 37 °C under a 5% CO2 atmosphere for 70 h. Ten microliters of resazurin solution (resazurin, 12.5 mg in 100 mL double-distilled water) was then added to each well and incubation continued for an additional 2–4 h. The plates were then read with a Spectramax Gemini XS microplate fluorometer (Molecular Devices Cooperation, Sunnyvale, CA, USA) using an excitation wavelength of 536 nm and an emission wavelength of 588 nm. Data were analyzed with the graphic program Softmax Pro (Molecular Devices Cooperation, Sunnyvale, CA, USA), which calculated IC50 values by linear regression and 4-parameter logistic regression from the sigmoidal dose inhibition curves. Melarsoprol (Arsobal Sanofi-Aventis, received from WHO) was used as control.
On the technique in general: The colour change of resazurin is a common sign of viable cells or microbes.

The subject of data set [8] is P. falciparum NF54. Kind of data set: In vitro microplate 3H-hypoxanthine incorporation assay against P. falciparum NF54. The data set is classed as cell-based, Plasmodium falciparum. On the procedure: as §1, §3
The mark [9] stands for this setting: K1 strain resistant to chloroquine and pyrimethamine, average of four determinations, read-out: P. Falciparum K1 IC50.

In the case of `Cc1ccc(S(=O)(=O)N2CCC3(N4CCCCC4)CC(c4ccccc4)C2C(c2ccccc2)C3)cc1` (centres unmarked) [Compound 16], in data set [1], the “S.I. = IC50 (Cyt.)/IC50 (T.b.r.)” value is 3.96 and the IC50 was 2650 nM. In addition, in data set [2], the IC50 was 10500 nM. In data set [3], the IC50 is 1260 nM and the “S.I. = IC50 (Cyt.)/IC50 (P.f. K1)” value is reported as 8.33.
For `COc1cc([C@@H]2c3cc4c(cc3[C@H](O)[C@H]3COC(=O)[C@H]23)OCO4)cc(OC)c1OC` [POD, podophyllotoxin, reference compound], the IC50 in data set [4] is 12 nM.
In the case of `NCCN1CCC2(N3CCCC3)C[C@H](c3ccccc3)C1[C@@H](c1ccccc1)C2` (racemic) [Compound 8, rac-(7R,8R)-2-[7,8-Diphenyl-5-(pyrrolidin-1-yl)-2-azabicyclo[3.2.2]nonan-2-yl]ethan-1-amine], the IC50 at 72 h in data set [5] (rat) amounted to 25800 nM. Also, the “S.I. = IC50 (Cyt.)/IC50 (P.f. K1)” value in data set [6] stood at 47.8. Moreover, the IC50 in data set [6] (setting [9]) was found to be 540 nM. Besides, in data set [7], the “S.I. = IC50 (Cyt.)/IC50 (T.b.r.)” value is 22.8 and the IC50 came to 1130 nM.
Regarding `CCN(CC)CCCC(C)Nc1ccnc2cc(Cl)ccc12` (centres unmarked) [CQ, chloroquine, reference compound], the IC50 at 72 h in data set [5] (rat skeletal myoblasts, average of four determinations, read-out: Cytotox. L-6 Cells IC50) stood at 90900 nM. In addition, the “S.I. = IC50 (Cyt.)/IC50 (P.f. K1)” value in data set [6] came out at 606. The IC50 in data set [6] (K1, read-out: P. Falciparum K1 IC50) worked out at 150 nM; in data set [8] (Plasmodium falciparum, NF54, read-out: P. Falciparum NF54 IC50), 3.9 nM. In data set [8] (L-6 cytotoxicity over P.f. NF54), the “S.I. = IC50 (Cyt.)/IC50 (P.f. NF54)” value was found to be 23308.
As to `Cc1ccc(S(=O)(=O)N2CCC3(N4CCCC4)CC(c4ccccc4)C2C(c2ccccc2)C3)cc1` (centres unmarked) [Compound 17], the “S.I. = IC50 (Cyt.)/IC50 (T.b.r.)” value in data set [1] is 7.48. In addition, the figures for the IC50 in data set [1], in data set [2] and in data set [3] were 1260 nM, 9420 nM and 1300 nM, respectively. Also, the “S.I. = IC50 (Cyt.)/IC50 (P.f. K1)” value in data set [3] is 7.25.
As to `NCCN1CCC2(N3CCCCC3)C[C@H](c3ccccc3)C1[C@@H](c1ccccc1)C2` (racemic) [Compound 7, rac-(7R,8R)-2-[7,8-Diphenyl-5-(piperidin-1-yl)-2-azabicyclo[3.2.2]nonan-2-yl]ethan-1-amine], the 50% inhibitory concentration (IC50) at 72 h in data set [5] (rat) amounted to 16800 nM. The “S.I. = IC50 (Cyt.)/IC50 (P.f. K1)” value in data set [6] stood at 93.3. In addition, the IC50 turned out to be 180 nM in data set [6] (setting [9]) and 1940 nM in data set [7]. The “S.I. = IC50 (Cyt.)/IC50 (T.b.r.)” value in data set [7] came to 8.66.

The values above are taken from paper PMC9572860, “Antiprotozoal Activity of Azabicyclo-Nonanes Linked to Tetrazole or Sulfonamide Cores” (Molecules, 2022).
